Experimental data: patent US6653529B2, “Use of the maize X112 mutant ahas 2 gene and imidazolinone herbicides for selection of transgenic monocots, maize, rice and wheat plants resistant to the imidazolinone herbicides” (BASF Aktiengesellschaft, priority 2000, dated 2003)

What was measured:
[1] = tested on: AHAS (acetohydroxyacid synthase) in extracts of Nortai, Line 26 and Line 29; assay: In vitro AHAS activity assay; assay type: biochemical, rice; settings: Nt, Line 26, Line 29; FIG. 2
Description: Previously published procedures were used for the extraction and in vitro assay for AHAS activity (Singh et al. 1988). Lower portions of the shoots were used as the source of plant tissue for the assay. The desalted crude extracts were used for the in vitro enzyme assays. Acetolactate produced by the enzyme was converted to acetoin, which was measured by the Westerfield assay system.
In vitro AHAS assays were performed to understand the basis of herbicide tolerance in the transgenic plants. Previously published procedure was used for the extraction and in vitro assay for AHAS activity (Singh et al. 1988). The lower portions of the shoots were used as the source of plant tissue for the assay. The desalted crude extracts were used for the in vitro enzyme assays. Acetolactate produced by the enzyme was converted to acetoin, which was measured by the Westerfield assay system (Westerfield 1945). The specific activity of AHAS was about 30% higher in Line 26 (67 nmoles/mg protein/h) and Line 29 (64 nmoles/mg protein/h) compared to the activity in Nortai (Nt) (50 nmoles/mg protein/h).

[2] = tested on: transgenic rice containing 35S/als transgene; settings: cited from earlier work

## COc1nc(C)nc(NC(=O)NS(=O)(=O)c2ccccc2Cl)n1 [chlorsulfuron]
[1]
  inhibition of AHAS activity from all three lines: inhibited in a similar manner
[2]; Arabidopsis ALS promoter replaced with CaMV35S promoter (Li et al. 1992)
  differences in in vitro resistance: 40 fold
[2]; transgenic rice containing 35S/als transgene (Li et al. 1992)
  increase in in vitro resistance: 200 fold
